Reference: patent US20250127896A1, “CHIMERIC TIM4 RECEPTORS AND USES THEREOF” (CERO THERAPEUTICS HOLDINGS, INC., priority 2021, published 2025)
“Also recorded” adds a separate entry of the source.

Experiments:
[1] = test system: A2780 ovarian cancer cells; assay: T cell phenotype (CCR7, CD4/CD8) and proliferation in A2780 / PARP inhibitor co-culture; type: cell-based, human; conditions: for CCR7 expression (% CCR7+ cells in Tim4+ T cells): 120 hours co-culture with olaparib-treated A2780 cells; for CER T cell proliferation: co-cultures treated with PARPi vs wtTIM-4 T cells or no drug, E:T 1:1
Excerpt: FIGS. 27A-27B show a (FIG. 27A) schematic of chimeric Tim4 receptors, CER-1234 and CER1236 of the present disclosure; and (FIG. 27B) a schematic of assay set up for assessing immune phenotype of the chimeric Tim4 receptors in co-culture with PARP inhibitor treated ovarian cancer cells. CER-1234 and CER1236 have an extracellular Tim4 binding domain, CD28 transmembrane domain, CD28 signaling domain, TLR2 signaling domain, and CD3ζ signaling domain, and showing the orientation of the signaling domains in the chimeric Tim4 receptor constructs. A control molecule, CER-1183, having a Tim4 extracellular binding domain, a Tim4 transmembrane domain, and Tim4 signaling domain is also depicted.
Samples on bar graph from left to right: A2780+ T cell, A2780+ T cell +niraparib, and A2780+ T cell +olaparib. […] For FIGS. 29A-29C, co-culture conditions A2780+ T cell; A2780+ T cell +niraparib; A27080+ T cell +olaparib are shown from left to right in the bar graph for each donor T cell sample.
FIGS. 30A-30C show CD4/CD8 T cell ratio at 120 hours of co-culture of chimeric Tim4 receptor transduced T cells, olaparib or niraparib, and target A2780 ovarian cancer cells. Samples on bar graph from left to right: A2780+ T cell, A2780+T cell +niraparib, and A2780+ T cell +olaparib. […] For FIGS. 4A-4C, co-culture conditions A2780+ T cell; A2780+ T cell +niraparib; A27080+T cell +olaparib are shown from left to right in the bar graph for each donor T cell sample.
Expression of TIM-4, CD45RA, and CCR7 as well as CD4/CD8 ratios were evaluated by flow cytometry using commercially available fluorochrome-conjugated antibodies. Proliferation was measured by flow cytometry using precision count beads to determine the absolute counts of viable T cells at the end of the co-culture. T-cell proliferation is reported as the fold expansion of T cell counts at 120 hours relative to 0 hours.

REC-1 cells = assay: CER T cell cytotoxicity against REC-1 mCherry cells with ibrutinib (Incucyte); type: cell-based; conditions: for cytotoxic activity of CER T cells alone (no ibrutinib) / tumor cell killing in combination with ibrutinib: REC-1 cells
Excerpt: FIG. 38: CER1236 T cells have enhanced and more complete cytotoxic effect against Ibrutinib-treated REC-1 MCL cells but not untreated REC-1 MCL cells.
Ibrutinib was washed off prior to co-culture with CER T cells. […] Total fluorescence of REC-1 mCherry cells decreased as cytotoxicity occurred.

[2] = test system: A2780 ovarian cancer cells; assay: Cytokine production by CER T cells co-cultured with PARP inhibitor-treated A2780 cells; type: cell-based, human; conditions: for TNF-α, IFN-γ, granzyme B induction: PARP inhibitor-treated A2780, E:T 1:1
Method: FIGS. 35A-35C: Cytokine production by CER T cells in response to co-culture with PARP inhibitor-treated A2780 ovarian cancer cells. Samples from left to right: no drug, niraparib treated, and olaparib treated. FIG. 35A-IFN-γ. FIG. 35B-TNF-α. FIG. 35C-granzyme B.
CER T-cell activation was assessed by measuring induction of IFN-gamma by plate- and cell-based assays. Single induction plate assay: varying concentrations of phosphatidylserine (PS) or phosphatidylethanolamine (PE), a control membrane phospholipid not recognized by wild type TIM-4 (wtTIM-4), were coated onto high-binding tissue culture plates. CER T cells were added and IFN-γ levels were measured 24 hours after ligand exposure by ELISA. EC50 concentrations were determined by nonlinear regression (agonist vs. response-variable slope (4 parameters)). Induction by recursive stimulation plate assay: CER T cells were added to phosphatidylserine coated plates (2.5-20 μg/mL PS coating). Five days later, CER T cells were transferred to uncoated plates with fresh T cell optimizer media for 24 hours. Then, CER T cells were transferred again to a fresh PS coated plate. Supernatant was collected to assess IFN-γ induction by ELISA at various timepoints during re-stimulation (24, 72, and 120 hours). Cell-based assay: cytokine induction was assessed by multiparametric ELISA using conditioned supernatants harvested after 120 hours from the cytotoxicity assay described below.

Jeko1 TMEM30A−/− cells = assay: Uptake/engulfment of pHrodo-labeled JeKo-1 PS+ (TMEM30A−/−) cells by CER T cells; type: cell-based; conditions: for uptake/engulfment of JeKo-1 PS+ (TMEM30A−/−) tumor cell fragments: pHrodo label, in vitro co-culture
Method: FIG. 20: FACs and imaging-based detection of pHrodo dye-labeled tumor cell phagocytosis and endocytosis.
Statistical analysis was performed using 2-way ANOVA.

[3] = either drug combined, 96 hours, compared to CER-1234 with no drug

Substance	CCR7 expression (% CCR7+ cells in Tim4+ T cells) [1]	CER T cell proliferation [1]	cytotoxicity (REC-1 cells; BTKi treatment in combination) [%]	cytotoxic activity of CER T cells alone (no ibrutinib) (REC-1 cells)	tumor cell killing in combination with ibrutinib (REC-1 cells)	TNF-α, IFN-γ, granzyme B induction [2]	Interferon-γ increase [2, 3] [fold]	granzyme B increase [2, 3]	uptake/engulfment of JeKo-1 PS+ (TMEM30A−/−) tumor cell fragments (Jeko1 TMEM30A−/− cells)	CD4/CD8 ratio ([1]; 120 hours co-culture with PARPi-treated A2780, donor 38 and donor 41)	phagocytic index (frequency and magnitude of uptake) (Jeko1 TMEM30A−/− cells; compared to wtTim-4, CER1250 and CER1236+actin polymerization inhibitor)
CER-1234: chimeric Tim4 receptor: Tim4 binding domain-CD28tm-CD28-TLR2 TIR-CD3z, SEQ ID NO:18; tested as transduced T cells	Higher CCR7 expression	proliferated in co-cultures treated with PARPi	> 90	limited cytotoxic activity	Tumor cell killing was enhanced	induced	7	5-7 fold	increased uptake of JeKo-1 PS^+ tumor cell fragments	–	–
CER-1236: chimeric Tim4 receptor: Tim4 binding domain-CD28tm-CD28-CD3z-TLR2 TIR, SEQ ID NO:19; tested as transduced T cells	Higher CCR7 expression	proliferated in co-cultures treated with PARPi	–	Some CER1236 T cytotoxicity against untreated REC-1 cells is observed	synergize with ibrutinib to enhance killing of REC-1 mantle cell lymphoma cells	induced	–	–	increased uptake of JeKo-1 PS^+ tumor cell fragments; also recorded: exhibited increased engulfment of Jeko1 TMEM30A^−/− cells	higher CD4/CD8 ratios	Higher frequency and magnitude of uptake
